Test results from patent US20210121456A1, “USE OF METHYLNALTREXONE TO ATTENUATE TUMOR PROGRESSION” (Salix Pharmaceuticals, Inc., priority 2014, published 2021).

Assays:
[1] = system: subjects with advanced medical illness and opioid-induced constipation; assay: Study 2: double-blind, randomized, placebo-controlled study of subcutaneous MNTX (fixed dose); format: in vivo, human
Protocol: A double-blind, randomized, placebo-controlled study of subcutaneous MNTX was conducted in subjects with advanced medical illness and a current history of opioid-induced constipation. To satisfy eligibility criteria for enrollment, subjects were required to be on stable doses of laxatives and opioid analgesics. In the context of the study, a stable dose of opioid analgesics was defined as no reduction in the dose of opioid analgesic of ≥50% for at least three days before the first dose of MNTX. A stable dose of laxatives was defined as having a standing laxative order (and not PRN, or as-needed) for at least three days before the first dose of MNTX. A diagnosis of constipation was provided if the subject had (a) fewer than 3 bowel movements during the previous week by history and no clinically notable laxation in the 24 hours before the first dose of MNTX, or (b) no clinical notable laxation in the 48 hours before the first dose of MNTX.
Eligible subjects were randomized to receive MNTX or placebo every other day during a 14-day, double-blind period. Subjects weighing 38 kg to <62 kg received 0.4 mL SC MNTX (8 mg) or equal volume of placebo. Subjects weighing ≥62 kg received 0.6 mL SC MNTX (12 mg) or equal volume of placebo. Injections were administered subcutaneously in either the shoulder area, buttocks, abdomen, thighs or extremities, and rescue-laxatives, enemas or manual disimpactions were not administered within 4 hours before or after each dose of test article.
The endpoint assessed was the proportion of subjects with rescue-free laxation response within 4 hours after at least two of the first four doses. Two hundred and twenty-nine (229) subjects were enrolled and evaluated, including 151 patients with advanced cancers and 78 patients with other advanced illness (e.g., cardiovascular, pulmonary or neurologic disorders). Of which 229 subjects which enrolled, 113 were randomized to the placebo group and 116 were randomized to the MNTX treatment group. Of the patients who completed the double-blind phase, 142 (placebo 69, MNTX 73) elected to proceed with a 10-week open label phase of subcutaneous MNTX at PRN dosing.

[2] = system: cancer subjects with opioid-induced constipation (tumor disease progression); assay: Pooled analysis of Study 1 and Study 2: adverse events of disease progression; format: in vivo, human
Text: As part of the routine adverse event (AE) evaluations filled out by all investigators in the studies described in Examples 1 and 2, AEs of tumor progression were tabulated. Both studies were randomized, placebo-controlled trials that involved a 2-week treatment period followed by a 2-week follow-up period. The enrolled subjects were advanced illness (incurable cancer or other end-stage disease) subjects with OIC who were receiving stable doses of laxatives and opioid analgesics. In the context of the study, a stable dose of opioid analgesics was defined as no reduction in the dose of opioid analgesic of ≥50% for at least three days before the first dose of MNTX. A stable dose of laxatives was defined as having a standing laxative order (and not PRN, or as-needed) for at least three days before the first dose of MNTX. A diagnosis of constipation was provided if the subject had (a) fewer than 3 bowel movements during the previous week by history and no clinically notable laxation in the 24 hours before the first dose of MNTX, or (b) no clinical notable laxation in the 48 hours before the first dose of MNTX. In Study 1 (Example 1), subjects received subcutaneous MNTX 0.15 mg/kg or placebo (PBO) every other day (QOD), and in Study 2 (Example 2) subjects received subcutaneous MNTX (8 mg or 12 mg based on body weight 38 to <62 kg or ≥62 kg, respectively) or placebo administered QOD. The 12 mg fixed dose was designed to correspond to the 0.15 mg/kg weight-based dose. Rescue-laxatives, enemas or manual disimpactions were not administered within 4 hours before or after each dose of MNTX. For the purpose of this analysis, only subjects with a cancer-related diagnosis were considered. For statistical significance testing, the Fisher's exact test was used (p<0.05).
Table 1 and FIG. 1 provide AEs of disease progression in the pooled analysis and for each individual study during the double-blind phase of the studies.
Furthermore, when the pool of MNTX-treated subjects across both studies was examined, there was a significant decrease in the percentage of subjects with disease progression between subjects who responded to MNTX treatment and those who were considered non-responders. A subject with laxation within 4 hours after two of the first four doses of MNTX was considered a responder.
For the analysis carried out in this Example and in Example 3, a subject with laxation occurring from 0-4 hours after two of the first four doses of MNTX was considered a MNTX responder or responsive subject. Data for placebo patients who elected to participate in the open-label MNTX treatment phase was collected from the first 4 doses of open-label treatment. Data for the MNTX-treated patients was collected from the first 4 doses of the double-blind phase of the study.

Lewis lung cancer model = details: infusion of MNTX; cited from earlier work
colectomy patients = details: more than 500 colectomy patients, two randomized clinical trials; cited from earlier work

SMILES: C[N@+]1(CC2CC2)CC[C@]23c4c5ccc(O)c4O[C@H]2C(=O)CC[C@@]3(O)[C@H]1C5.[Br-] [MNTX, (R)—N-(cyclopropylmethyl) noroxymorphone methobromide]
- subjects with rescue-free laxation response within 4 hours after at least 2 of the first 4 doses ([1]; ITT population, first week, 8 or 12 mg SC QOD): 62.9%
- number of rescue-free laxations within 24 hour post dosing per week ([1]; Week 1): 4.9
- number of total laxations within 24 hour post dosing per week ([1]; Week 1): 4.9
- number of rescue-free laxations within 24 hour post dosing per week ([1]; Week 2): 3.2
- number of total laxations within 24 hour post dosing per week ([1]; Week 2): 3.2
- improvement in the stool symptoms domain of the PAC-SYM ([1]; compared with the placebo group, p=0.0920): more pronounced
- subjects who used enemas ([1]; double-blind period): 17%
- subjects who used rescue laxatives ([1]; double-blind period): 27%
- subjects who required manual disimpaction ([1]; double-blind period, either group): < 5%
- opioid use ([1]; effect of MNTX administration): not affected
- efficacy versus placebo for the primary and all secondary efficacy endpoints ([1]; fixed doses 8 mg or 12 mg SC QOD): statistically superior to placebo
- median time to first rescue-free laxation after the first dose ([1]; in vivo): 0.8 h
- subjects with rescue-free laxation within 4 hours after at least 4 of the maximum 7 doses ([1]; in vivo): 62.2%
- subjects with rescue-free laxation within 4 hours of the first dose ([1]; in vivo): 69.8%
- Adverse Events of Disease Progression, n/N ([2]; Combined (Study 1 & Study 2), double-blind phase, cancer subjects): 16/116
- % Progression ([2]; MNTX Non-Responders): 22.0%
- Disease Progression (number of subjects) ([2]; MNTX Non-Responders): 11
- No Disease Progression (number of subjects) ([2]; MNTX Non-Responders): 39
- % Progression ([2]; MNTX Responders): 7.6%
- No Disease Progression (number of subjects) ([2]; MNTX Responders): 61
- Disease Progression (number of subjects) ([2]; MNTX Responders (laxation within 4 hours after two of the first four doses)): 5
- No Disease Progression (number of subjects) ([2]; MNTX Total): 100
- Disease Progression (number of subjects) ([2]; MNTX Total, pooled): 16
- Adverse Events of Disease Progression, % ([2]; Study 1, double-blind phase): (16.2%)
- Adverse Events of Disease Progression, n/N ([2]; Study 1, double-blind phase): 6/37
- Adverse Events of Disease Progression, % ([2]; Study 2, double-blind phase): (12.7%)
- Adverse Events of Disease Progression, n/N ([2]; Study 2, double-blind phase): 10/79
- reduction in the incidence of AE of disease progression versus placebo ([2]; pooled analysis): ~46%
- tumor growth and metastasis (Lewis lung cancer model): dramatically reduced growth and metastasis
- safety and perioperative analgesia (colectomy patients): safely given
